Reference: US9999619B2, “Piperidin-4-yl azetidine derivatives as JAK1 inhibitors” (Incyte Corporation, priority 2010, dated 2018)

Assays:
Type in all cases: biochemical
[1] = target: human JAK1 (a.a. 837-1142) (Homo sapiens, UniProt P23458); assay: In vitro JAK kinase assay (HTRF, phosphorylation of a biotinylated peptide), JAK1; settings: measured at 1 mM ATP
Experimental: (§1) Compounds herein were tested for inhibitory activity of JAK targets according to the following in vitro assay described in Park et al., Analytical Biochemistry 1999, 269, 94-104. The catalytic domains of human JAK1 (a.a. 837-1142), Jak2 (a.a. 828-1132) and Jak3 (a.a. 781-1124) with an N-terminal His tag were expressed using baculovirus in insect cells and purified. The catalytic activity of JAK1, JAK2 or JAK3 was assayed by measuring the phosphorylation of a biotinylated peptide. The phosphorylated peptide was detected by homogenous time resolved fluorescence (HTRF). […] Reactions were carried out at room temperature for 1 hr and then stopped with 20 μL 45 mM EDTA, 300 nM SA-APC, 6 nM Eu-Py20 in assay buffer (Perkin Elmer, Boston, Mass.). Binding to the Europium labeled antibody took place for 40 minutes and HTRF signal was measured on a Fusion plate reader (Perkin Elmer, Boston, Mass.).

[2] = target: human JAK1 (a.a. 837-1142); assay: as above; settings: ratio of JAK2 IC50 to JAK1 IC50, measured at 1 mM ATP
Experimental: as §1

Jak2 (a.a. 828-1132) = Jak2 (a.a. 828-1132) (Homo sapiens (Human), UniProt O60674); assay: In vitro JAK kinase assay (HTRF, phosphorylation of a biotinylated peptide), JAK2; settings: measured at 1 mM ATP
Chain of Jak2 (a.a. 828-1132) (O60674 828-1132): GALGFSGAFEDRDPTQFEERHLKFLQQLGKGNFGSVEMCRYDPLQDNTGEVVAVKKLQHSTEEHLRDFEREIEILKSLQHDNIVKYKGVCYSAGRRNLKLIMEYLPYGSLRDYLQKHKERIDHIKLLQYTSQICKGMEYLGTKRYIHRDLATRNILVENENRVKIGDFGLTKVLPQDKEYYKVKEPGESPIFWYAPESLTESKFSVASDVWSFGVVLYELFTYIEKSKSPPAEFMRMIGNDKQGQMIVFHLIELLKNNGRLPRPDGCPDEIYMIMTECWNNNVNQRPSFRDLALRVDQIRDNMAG
Experimental: as §1

Row | Compound | IC50 [1] [µM] | IC50 Ratio JAK2/JAK1 [2] | IC50 (Jak2 (a.a. 828-1132)) [µM]
1 | COC(=O)c1cc(F)ccc1NC(=O)N1CCC(N2CC(CC#N)(n3cc(-c4ncnc5[nH]ccc45)cn3)C2)CC1 [Example 207, methyl 2-{[(4-{3-(cyanomethyl)-3-[4-(7H-pyrrolo[2,3-d]pyrimidin-4-yl)-1H-pyrazol-1-yl]azetidin-1-yl}piperidin-1-yl)carbonyl]amino}-5-fluorobenzoate] | ≤ 0.005 | 2.5 | ≤ 0.01
2 | CS(=O)(=O)N1CCC(N2CC(CC#N)(n3cc(-c4ccnc5[nH]ccc45)cn3)C2)CC1 [Example 351, {1-[1-(Methylsulfonyl)piperidin-4-yl]-3-[4-(1H-pyrrolo[2,3-b]pyridin-4-yl)-1H-pyrazol-1-yl]azetidin-3-yl}acetonitrile] | ≤ 0.005 | 3.8 | 0.01 to 0.05
3 | COc1ncccc1NC(=O)N1CCC(N2CC(CC#N)(n3cc(-c4ncnc5[nH]ccc45)cn3)C2)CC1 [Example 204, 4-{3-(cyanomethyl)-3-[4-(7H-pyrrolo[2,3-d]pyrimidin-4-yl)-1H-pyrazol-1-yl]azetidin-1-yl}-N-(2-methoxypyridin-3-yl)piperidine-1-carboxamide] | ≤ 0.005 | 4.0 | 0.01 to 0.05
4 | N#CCC1(n2cc(-c3ncnc4[nH]ccc34)cn2)CN(C2CCN(C(=O)c3ccc(-c4cccc5ncccc45)c(F)c3)CC2)C1 [Example 129, {1-[1-(3-fluoro-4-quinolin-5-ylbenzoyl)piperidin-4-yl]-3-[4-(7H-pyrrolo[2,3-d]pyrimidin-4-yl)-1H-pyrazol-1-yl]azetidin-3-yl}acetonitrile] | ≤ 0.005 | 7.9 | ≤ 0.01
5 | N#CCC1(n2cc(-c3ncnc4[nH]ccc34)cn2)CN(C2CCN(C(=O)c3ccccc3C#N)CC2)C1 [Example 10, 2-[(4-{3-(cyanomethyl)-3-[4-(7H-pyrrolo[2,3-d]pyrimidin-4-yl)-1H-pyrazol-1-yl]azetidin-1-yl}piperidin-1-yl)carbonyl]benzonitrile] | 0.005 to 0.02 | 4.4 | 0.01 to 0.05
6 | N#CCC1(n2cc(-c3ncnc4[nH]ccc34)cn2)CN(C2CCN(Cc3cc(F)cc(F)c3)CC2)C1 [Example 215, {1-[1-(3,5-difluorobenzyl)piperidin-4-yl]-3-[4-(7H-pyrrolo[2,3-d]pyrimidin-4-yl)-1H-pyrazol-1-yl]azetidin-3-yl}acetonitrile] | ≤ 0.005 | 5.7 | 0.01 to 0.05
7 | Cc1nc(C(F)(F)F)ccc1NC(=O)N1CCC(N2CC(CC#N)(n3cc(-c4ncnc5[nH]ccc45)cn3)C2)CC1 [Example 205, 4-{3-(cyanomethyl)-3-[4-(7H-pyrrolo[2,3-d]pyrimidin-4-yl)-1H-pyrazol-1-yl]azetidin-1-yl}-N-[2-methyl-6-(trifluoromethyl)pyridin-3-yl]piperidine-1-carboxamide] | 0.005 to 0.02 | 4.4 | 0.01 to 0.05
8 | N#CCC1(n2ccc(-c3ncnc4[nH]ccc34)c2)CN(C2CCN(C(=O)c3cc(F)ccc3F)CC2)C1 [Example 278, {1-[1-(2,5-difluorobenzoyl)piperidin-4-yl]-3-[3-(7H-pyrrolo[2,3-d]pyrimidin-4-yl)-1H-pyrrol-1-yl]azetidin-3-yl}acetonitrile] | ≤ 0.005 | 5.6 | ≤ 0.01
9 | COc1cc(F)ccc1C(=O)N1CCC(N2CC(CC#N)(n3cc(-c4ncnc5[nH]ccc45)cn3)C2)CC1 [Example 40, {1-[1-(4-fluoro-2-methoxybenzoyl)piperidin-4-yl]-3-[4-(7H-pyrrolo[2,3-d]pyrimidin-4-yl)-1H-pyrazol-1-yl]azetidin-3-yl}acetonitrile] | ≤ 0.005 | 4.8 | ≤ 0.01
10 | N#CCC1(n2ccc(-c3ncnc4[nH]ccc34)c2)CN(C2CCN(C(=O)c3cc(F)cc(C(F)(F)F)c3)CC2)C1 [Example 274, {1-{1-[3-fluoro-5-(trifluoromethyl)benzoyl]piperidin-4-yl}-3-[3-(7H-pyrrolo[2,3-d]pyrimidin-4-yl)-1H-pyrrol-1-yl]azetidin-3-yl}acetonitrile] | ≤ 0.005 | 9.0 | 0.01 to 0.05
11 | N#CCC1(n2ccc(-c3ncnc4[nH]ccc34)c2)CN(C2CCN(C(=O)Nc3ccccc3C#N)CC2)C1 [Example 287, 4-{3-(cyanomethyl)-3-[3-(7H-pyrrolo[2,3-d]pyrimidin-4-yl)-1H-pyrrol-1-yl]azetidin-1-yl}-N-(2-cyanophenyl)piperidine-1-carboxamide] | 0.005 to 0.02 | 6.7 | 0.05 to 0.1
12 | CC(C)COC(=O)N1CCC(N2CC(CC#N)(n3cc(-c4ncnc5[nH]ccc45)cn3)C2)CC1 [Example 390, isobutyl 4-{3-(cyanomethyl)-3-[4-(7H-pyrrolo[2,3-d]pyrimidin-4-yl)-1H-pyrazol-1-yl]azetidin-1-yl}piperidine-1-carboxylate] | ≤ 0.005 | 8.3 | 0.01 to 0.05
13 | N#CCC1(n2cc(-c3c(F)cnc4[nH]ccc34)cn2)CN(C2CCN(C(=O)c3ccc(C#N)cc3F)CC2)C1 [Example 317, 4-[(4-{3-(cyanomethyl)-3-[4-(5-fluoro-1H-pyrrolo[2,3-b]pyridin-4-yl)-1H-pyrazol-1-yl]azetidin-1-yl}piperidin-1-yl)carbonyl]-3-fluorobenzonitrile] | ≤ 0.005 | 4.5 | 0.01 to 0.05
14 | Cc1cc(C)c(CC(=O)N2CCC(N3CC(CC#N)(n4cc(-c5ncnc6[nH]ccc56)cn4)C3)CC2)c(C)c1 [Example 113, {1-[1-(mesitylacetyl)piperidin-4-yl]-3-[4-(7H-pyrrolo[2,3-d]pyrimidin-4-yl)-1H-pyrazol-1-yl]azetidin-3-yl}acetonitrile] | 0.02 to 0.03 | 4.2 | 0.05 to 0.1
15 | N#CCC1(n2cc(-c3ncnc4[nH]ccc34)cn2)CN(C2CCN(C(=O)c3ccc(F)c(O)c3)CC2)C1 [Example 58, {1-[1-(4-fluoro-3-hydroxybenzoyl)piperidin-4-yl]-3-[4-(7H-pyrrolo[2,3-d]pyrimidin-4-yl)-1H-pyrazol-1-yl]azetidin-3-yl}acetonitrile] | ≤ 0.005 | 5.0 | 0.01 to 0.05
16 | N#CCC1(n2cc(-c3ncnc4[nH]ccc34)cn2)CN(C2CCN(C(=O)c3ccc(-c4cccc5cccnc45)c(F)c3)CC2)C1 [Example 132, {1-[1-(3-fluoro-4-quinolin-8-ylbenzoyl)piperidin-4-yl]-3-[4-(7H-pyrrolo[2,3-d]pyrimidin-4-yl)-1H-pyrazol-1-yl]azetidin-3-yl}acetonitrile] | – | 5.8 | ≤ 0.01
17 | CC1CC(N2CC(CC#N)(n3cc(-c4ncnc5[nH]ccc45)cn3)C2)CCN1C(=O)c1cccc(F)c1 (single isomer, unassigned) [Example 150, {1-[1-(3-fluorobenzoyl)-2-methylpiperidin-4-yl]-3-[4-(7H-pyrrolo[2,3-d]pyrimidin-4-yl)-1H-pyrazol-1-yl]azetidin-3-yl}acetonitrile] | ≤ 0.005 | 7.0 | –
18 | CC1CC(N2CC(CC#N)(n3cc(-c4ncnc5[nH]ccc45)cn3)C2)CCN1Cc1c(F)cccc1Cl (stereo not shown) [Example 244, {1-[1-(2-chloro-6-fluorobenzyl)-2-methylpiperidin-4-yl]-3-[4-(7H-pyrrolo[2,3-d]pyrimidin-4-yl)-1H-pyrazol-1-yl]azetidin-3-yl}acetonitrile] | – | 1.8 | –
19 | CC1CC(N2CC(CC#N)(n3cc(-c4ncnc5[nH]ccc45)cn3)C2)CCN1Cc1ccc(N(C)C)c(C#N)c1F (single isomer, unassigned) [Example 243, 3-[(4-{3-(cyanomethyl)-3-[4-(7H-pyrrolo[2,3-d]pyrimidin-4-yl)-1H-pyrazol-1-yl]azetidin-1-yl}-2-methylpiperidin-1-yl)methyl]-6-(dimethylamino)-2-fluorobenzonitrile] | – | 6.4 | –
20 | CC1CC(N2CC(CC#N)(n3cc(-c4ncnc5[nH]ccc45)cn3)C2)CCN1Cc1ccc(N(C)C)c(C#N)c1F (single isomer, unassigned) [Example 242, 3-[(4-{3-(cyanomethyl)-3-[4-(7H-pyrrolo[2,3-d]pyrimidin-4-yl)-1H-pyrazol-1-yl]azetidin-1-yl}-2-methylpiperidin-1-yl)methyl]-6-(dimethylamino)-2-fluorobenzonitrile] | – | 8.3 | –
21 | CC1CC(N2CC(CC#N)(n3cc(-c4ncnc5[nH]ccc45)cn3)C2)CCN1C(=O)c1cccc(F)c1 (single isomer, unassigned) [Example 149, {1-[1-(3-fluorobenzoyl)-2-methylpiperidin-4-yl]-3-[4-(7H-pyrrolo[2,3-d]pyrimidin-4-yl)-1H-pyrazol-1-yl]azetidin-3-yl}acetonitrile] | ≤ 0.005 | 5.0 | –
22 | CC1CC(N2CC(CC#N)(n3cc(-c4ncnc5[nH]ccc45)cn3)C2)CCN1Cc1c(F)cccc1Cl (stereo not shown) [Example 245, {1-[1-(2-chloro-6-fluorobenzyl)-2-methylpiperidin-4-yl]-3-[4-(7H-pyrrolo[2,3-d]pyrimidin-4-yl)-1H-pyrazol-1-yl]azetidin-3-yl}acetonitrile] | – | 1.5 | –
